Results taken from patent US6337192B1, “MMSC1-an MMAC1 interacting protein” (Myraid Genetics, Inc., priority 1998, dated 2002).
* marks the point of attachment. Biotin = O=C1N[C@H]2[C@H](CS[C@H]2CCCCC(=O)*)N1

Assays:
MMSc1 PDZ 5 = target: T1, MMSc1 PDZ 5 (Homo sapiens, UniProt Q8NI35); assay: Peptide binding ELISA assay (PDZ Binding Assay), MMSC1 PDZ domain 5; conditions: immobilized GST fusion of MMSc1 PDZ 5; biotinylated peptide pre-bound to streptavidin-alkaline phosphatase; colorimetric phosphatase assay
T1 construct: made in house; host or cells: E. coli
T1 sequence (Q8NI35 686-772 limits assumed): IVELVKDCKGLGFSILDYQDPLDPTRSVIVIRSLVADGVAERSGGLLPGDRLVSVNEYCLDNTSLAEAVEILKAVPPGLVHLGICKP
Description: (§1) cDNAs encoding each of the MMSC1 PDZ domains (amino acid residues identified in Table 1), and any desired control proteins, were generated by PCR and subcloned as glutathione S-transferase (GST) fusions in pGEX vectors (Pharmacia). After sequencing to confirm expression construct integrity, the resulting clones were expressed in E. coli and the desired fusion proteins isolated with glutathione-agarose and recovered with glutathione elution. These fusion proteins or control proteins were then adsorbed to different wells of a 96-well ELISA plate and remaining sites blocked with BSA. Synthetic commercially synthesized peptides encoding the desired PDZ-binding domain (i.e., the 16 C-terminal amino acids of MMAC1, or the C-terminal peptide sequences of interacting proteins identified by the approach of Example 2, or the C-terminal peptide sequences identified by the approach of Example 3), or a control peptide, and biotinylated at the amino-terminus, were pre-bound to streptavidin-alkaline phosphatase in a 4:1 molar ratio. The biotinylated peptide streptavidin-alkaline phosphatase complexes were then blocked with free biotin. These pre-bound peptide streptavidin-alkaline phosphatase complexes were then incubated with the immobilized PDZ domains in wash buffer containing PBS, BSA and triton-X100. Unbound material was removed with repeated washes. Bound peptide/streptavidin-alkaline phosphatase complex was then quantitated by a colorimetric phosphatase assay read on a 96-well plate reader.
(§2) The following peptides were used in the initial study: […]

MMSc1 PDZ 8 = target: T2, MMSc1 PDZ 8 (Homo sapiens, UniProt Q8NI35); assay: Peptide binding ELISA assay (PDZ Binding Assay), MMSC1 PDZ domain 8; conditions: immobilized GST fusion of MMSc1 PDZ 8; biotinylated peptide pre-bound to streptavidin-alkaline phosphatase; colorimetric phosphatase assay
T2 construct: made in house; host or cells: E. coli
T2 sequence (Q8NI35 1437-1520 limits assumed): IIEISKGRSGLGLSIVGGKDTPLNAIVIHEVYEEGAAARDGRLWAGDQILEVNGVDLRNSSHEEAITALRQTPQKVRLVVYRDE
Description: as §1, §2

MMSc1 PDZ 7 = target: T3, MMSc1 PDZ 7 (Homo sapiens, UniProt Q8NI35); assay: Peptide binding ELISA assay (PDZ Binding Assay), MMSC1 PDZ domain 7; conditions: immobilized GST fusion of MMSc1 PDZ 7; biotinylated peptide pre-bound to streptavidin-alkaline phosphatase; colorimetric phosphatase assay
T3 construct: made in house; host or cells: E. coli
T3 sequence (Q8NI35 1239-1322 limits assumed): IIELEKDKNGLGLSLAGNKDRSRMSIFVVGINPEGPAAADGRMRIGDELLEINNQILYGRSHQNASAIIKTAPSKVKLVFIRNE
Description: as §1, §2

MMSc1 PDZ 9 = target: T4, MMSc1 PDZ 9 (Homo sapiens, UniProt Q8NI35); assay: Peptide binding ELISA assay (PDZ Binding Assay), MMSC1 PDZ domain 9; conditions: immobilized GST fusion of MMSc1 PDZ 9; biotinylated peptide pre-bound to streptavidin-alkaline phosphatase; colorimetric phosphatase assay
T4 construct: made in house; host or cells: E. coli
T4 sequence (Q8NI35 1533-1615 limits assumed): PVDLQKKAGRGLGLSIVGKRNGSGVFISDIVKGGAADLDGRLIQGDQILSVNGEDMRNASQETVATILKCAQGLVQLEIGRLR
Description: as §1, §2

MMSc1 PDZ 6 = target: T5, MMSc1 PDZ 6 (Homo sapiens, UniProt Q8NI35); assay: Peptide binding ELISA assay (PDZ Binding Assay), MMSC1 PDZ domain 6; conditions: immobilized GST fusion of MMSc1 PDZ 6; biotinylated peptide pre-bound to streptavidin-alkaline phosphatase; colorimetric phosphatase assay
T5 construct: made in house; host or cells: E. coli
T5 sequence (Q8NI35 1068-1160 limits assumed): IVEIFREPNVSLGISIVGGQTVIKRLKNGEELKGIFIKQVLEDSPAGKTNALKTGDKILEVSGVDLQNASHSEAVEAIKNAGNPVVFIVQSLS
Description: as §1, §2

MMSc1 PDZ 3 = target: T6, MMSc1 PDZ 3 (Homo sapiens, UniProt Q8NI35); assay: Peptide binding ELISA assay (PDZ Binding Assay), MMSC1 PDZ domain 3; conditions: immobilized GST fusion of MMSc1 PDZ 3; biotinylated peptide pre-bound to streptavidin-alkaline phosphatase; colorimetric phosphatase assay
T6 construct: made in house; host or cells: E. coli
T6 sequence (Q8NI35 365-453 limits assumed): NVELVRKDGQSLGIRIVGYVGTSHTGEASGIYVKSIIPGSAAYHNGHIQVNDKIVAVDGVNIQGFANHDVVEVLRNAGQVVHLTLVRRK
Description: as §1, §2

Substance	A405 (MMSc1 PDZ 5)	A405 (MMSc1 PDZ 8)	A405 (MMSc1 PDZ 7)	A405 (MMSc1 PDZ 9)	A405 (MMSc1 PDZ 6)	A405 (MMSc1 PDZ 3)
Biotin-ENEPFDEDQHTQITKV-OH [MMAC]	0.00	0.30	1.25	0.10	0.23	0.01
Biotin-SGDDGDDPFLQYEFYV-OH [AF6]	0.02	0.29	1.05	2.41	1.46	2.24
Biotin-SGSGILAPPVPPRNTR-OH [SH3]	0.00	0.00	0.01	0.02	0.00	0.01
